Source: patent US12655150B2 (Cedilla Therapeutics, Inc., priority 2021, dated 2026)

system: NCI-H226; test: 72H TEAD Proliferation Assay (Cell Titer Glo 2.0); assay type: cell-based; settings: Homo sapiens, NCI-H226, 72 h, CTG 2.0, cell line not given (NCI-H226 responsive, NCI-H28 non-responsive)
Method in brief: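 NF2-deficient NCI-H226 mesothelioma cells, TEAD-dependent, treated 72 h; NF2-wild-type NCI-H28 serves as the TEAD-independent counter-screen for off-target cytotoxicity. Viable cells quantified by CellTiter-Glo 2.0 luminescence; background and time-zero signal subtracted, GI50 from nonlinear dose-response fit.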

| Structure (SMILES) | GI50 |
| --- | --- |
| O=C(O)c1ccc2c(c1)nc(NC1CCC(C(F)(F)F)CC1)c1cccn12 (stereo not shown) [I-18, 4-((4-(Trifluoromethyl)cyclohexyl)amino)pyrrolo[1,2-a]quinoxaline-7-carboxylic acid] | 1 to 5 µM |
| CC(C)(C)N1CCN(c2nc3cc(C(=O)O)ccc3n3cccc23)CC1 [I-20, 4-(4-(tert-Butyl)piperazin-1-yl)pyrrolo[1,2-a]quinoxaline-7-carboxylic acid] | > 10 µM |
| CC(C)(C)c1ccc(-c2cnc3ccc(C(N)=O)cc3n2)cc1 [I-158, 3-(4-(tert-Butyl)phenyl)quinoxaline-6-carboxamide] | > 10 µM |
| O=C(O)c1ccc2c(c1)nc(-c1ccc(Cl)cc1)c1cccn12 [I-48, 4-(4-Chlorophenyl)pyrrolo[1,2-a]quinoxaline-7-carboxylic acid] | > 10 µM |
| O=C(O)c1ccc2c(c1)nc(-c1ccc(F)cc1F)c1cccn12 [I-44, 4-(2,4-Difluorophenyl)pyrrolo[1,2-a]quinoxaline-7-carboxylic acid] | > 10 µM |
| C=CC(=O)N1CCc2c(cccc2-c2ccc(C(F)(F)F)cc2)C1 [I-136, 1-(5-(4-(Trifluoromethyl)phenyl)-3,4-dihydroisoquinolin-2(1H)-yl)prop-2-en-1-one] | ≤ 1 µM |
| COCC(C)NC(=O)N1CCc2c(cccc2-c2ccc(C(F)(F)F)cc2)C1 (stereo not shown) [I-78, N-(1-methoxypropan-2-yl)-5-(4-(trifluoromethyl)phenyl)-3,4-dihydroisoquinoline-2(1H)-carboxamide] | ≤ 1 µM |
| O=C(O)c1ccc2c(c1)nc(-c1ccc(C(F)(F)F)cc1F)c1nccn12 [I-60, 4-(2-Fluoro-4-(trifluoromethyl)phenyl)imidazo[1,2-a]quinoxaline-7-carboxylic acid] | 1 to 5 µM |
| O=C(O)c1ccc2c(c1)nc(C1CCCCC1)c1nccn12 [I-68, 4-Cyclohexylimidazo[1,2-a]quinoxaline-7-carboxylic acid] | > 10 µM |
| C=CC(=O)Nc1cc(-c2ccc(C(C)(C)C)cc2)nc2cc(C(=O)O)ccc12 [I-103, 4-Acrylamido-2-(4-(tert-butyl)phenyl)quinoline-7-carboxylic acid] | > 10 µM |
| C[C@@H](CO)NC(=O)c1ccc2c(c1)nc(-c1ccc(C(C)(C)C)cc1)c1cccn12 [I-190, (S)-4-(4-(tert-butyl)phenyl)-N-(1-hydroxypropan-2-yl)pyrrolo[1,2-a]quinoxaline-7-carboxamide] | 1 to 5 µM |
| O=C(O)c1ccc2c(c1)nc(-c1ccccc1)c1nccn12 [I-63, 4-Phenylimidazo[1,2-a]quinoxaline-7-carboxylic acid] | > 10 µM |
| Cc1cc(-c2ccc(C(F)(F)F)cc2)nc2cc(C(=O)O)ccc12 [I-89, 4-Methyl-2-(4-(trifluoromethyl)phenyl)quinoline-7-carboxylic acid] | ≤ 1 µM |
| O=C(O)c1ccc2c(c1)nc(N1CCC3(CC1)CC3)c1cncn12 [I-116, 4-(6-Azaspiro[2.5]octan-6-yl)imidazo[1,5-a]quinoxaline-7-carboxylic acid] | > 10 µM |
| C=CC(=O)NC(C)c1cn2ccnc2c(-c2ccc(C(C)(C)C)cc2)n1 (stereo not shown) [I-142, N-(1-(8-(4-(tert-butyl)phenyl)imidazo[1,2-a]pyrazin-6-yl)ethyl)acrylamide] | ≤ 1 µM |
| COC(=O)c1ccc2c(c1)nc(-c1ccc(C(C)(C)C)cc1)c1cccn12 [Compound I-164] | > 10 µM |
| O=C(O)c1ccc2c(c1)nc(N1CCC3(CC1)CC(F)(F)C3)c1cccn12 [I-32, 4-(2,2-Difluoro-7-azaspiro [3.5]nonan-7-yl) pyrrolo[1,2-a] quinoxaline-7-carboxylic acid] | 1 to 5 µM |
| O=C(O)c1ccc2c(c1)nc(N1CCc3ccccc3C1)c1cccn12 [I-21, 4-(3,4-Dihydroisoquinolin-2(1H)-yl)pyrrolo[1,2-a]quinoxaline-7-carboxylic acid] | > 10 µM |
| O=C(O)c1ccc2c(c1)nc(N1CCCCC1)c1cccn12 [I-2, 4-(Piperidin-1-yl)pyrrolo[1,2-a]quinoxaline-7-carboxylic acid] | > 10 µM |
| C=CC(=O)Nc1ccc2c(c1)nc(-c1ccc(C(F)(F)F)cc1)c1cccn12 [I-120, N-(4-(4-(trifluoromethyl)phenyl)pyrrolo[1,2-a]quinoxalin-7-yl)acrylamide] | ≤ 1 µM |

Next, values leading:

| GI50 | Structure (SMILES) |
| --- | --- |
| ≤ 1 µM | Cc1cc2c(-c3ccc(C(F)(F)F)cn3)nc3cc(C(=O)O)ccc3n2c1 [I-405, 2-Methyl-4-(5-(trifluoromethyl)pyridin-2-yl)pyrrolo[1,2-a]quinoxaline-7-carboxylic acid] |
| 1 to 5 µM | COc1cc(-c2ccc(C(F)(F)F)cc2)nc2cc(C(=O)NCC(O)C(F)(F)F)ccc12 (stereo not shown) [I-382, 4-methoxy-N-(3,3,3-trifluoro-2-hydroxypropyl)-2-(4-(trifluoromethyl)phenyl)quinoline-7-carboxamide] |
| ≤ 1 µM | O=C(O)c1ccc2c(c1)nc(-c1ccc(SC(F)(F)F)cc1)c1cccn12 [I-194, 4-(4-((trifluoromethyl)thio)phenyl)pyrrolo[1,2-a]quinoxaline-7-carboxylic acid] |
| ≤ 1 µM | C=CC(=O)NCc1cn2c(C(F)(F)F)cnc2c(-c2ccc(C(F)(F)F)cc2)n1 [I-246, N-((3-(trifluoromethyl)-8-(4-(trifluoromethyl)phenyl)imidazo[1,2-a]pyrazin-6-yl)methyl)acrylamide] |
| 1 to 5 µM | COC[C@H](C)NC(=O)c1cnc2c(N3CCC(CC(F)(F)F)CC3)cc(OC)cc2c1 [I-253, (S)-6-methoxy-N-(1-methoxypropan-2-yl)-8-(4-(2,2,2-trifluoroethyl)piperidin-1-yl)quinoline-3-carboxamide] |
| ≤ 1 µM | C=CC(=O)NCc1cc2ccc(F)cc2c(-c2ccc(C(F)(F)F)cc2)n1 [I-295, N-((7-fluoro-1-(4-(trifluoromethyl)phenyl)isoquinolin-3-yl)methyl)acrylamide] |
| 1 to 5 µM | CC[C@H](CO)NC(=O)c1ccc2c(OC)cc(-c3ccc(C(F)(F)F)cc3C(F)(F)F)nc2c1 [I-338, (R)-2-(2,4-bis(trifluoromethyl)phenyl)-N-(1-hydroxybutan-2-yl)-4-methoxyquinoline-7-carboxamide] |
| 1 to 5 µM | CC(O)C(=O)Nc1ccc2c(c1)nc(-c1ccc(C(C)(C)C)cc1)c1cccn12 (stereo not shown) [I-204, N-(4-(4-(tert-Butyl)phenyl)pyrrolo[1,2-a]quinoxalin-7-yl)-2-hydroxypropanamide] |
| ≤ 1 µM | O=C(/C=C/CF)NCc1cn2c(F)cnc2c(-c2ccc(C(F)(F)F)cc2)n1 [I-249, (E)-4-Fluoro-N-((3-fluoro-8-(4-(trifluoromethyl)phenyl)imidazo[1,2-a]pyrazin-6-yl)methyl)but-2-enamide] |
| 1 to 5 µM | CC(C)(C)c1ccc(-c2nc3cc(C(=O)O)ccc3n3cc(SC(F)(F)F)cc23)cc1 [I-411, 4-(4-(tert-Butyl)phenyl)-2-((trifluoromethyl)thio)pyrrolo[1,2-a]quinoxaline-7-carboxylic acid] |
| 1 to 5 µM | CC(c1ccc(-c2nc3cc(C(=O)O)ccc3n3cccc23)cc1)C(F)(F)F (stereo not shown) [I-195, 4-(4-(1,1,1-trifluoropropan-2-yl)phenyl)pyrrolo[1,2-a]quinoxaline-7-carboxylic acid] |
| 5 to 10 µM | CC[C@H](CO)NC(=O)c1ccc2nc(C)c(-c3ccc(C(F)(F)F)cc3)nc2c1 [I-423, (R)—N-(1-hydroxybutan-2-yl)-2-methyl-3-(4-(trifluoromethyl)phenyl)quinoxaline-6-carboxamide] |
| 5 to 10 µM | O=C(O)C1CCN(c2cn3ccnc3c(-c3ccc(C(F)(F)F)cc3)n2)C1 (stereo not shown) [I-234, 1-(8-(4-(Trifluoromethyl)phenyl)imidazo[1,2-a]pyrazin-6-yl)pyrrolidine-3-carboxylic acid] |
| 5 to 10 µM | COc1cc(-c2ccc(C(F)(F)F)cc2)nc2cc(C(=O)N[C@@H](C)c3cccc(C(=O)O)c3)ccc12 [I-347, (S)-3-(1-(4-methoxy-2-(4-(trifluoromethyl)phenyl)quinoline-7-carboxamido)ethyl)benzoic acid] |
| ≤ 1 µM | C=CC(=O)NCc1nc(-c2ccc(C(F)(F)F)cc2)c2ccn(C)c2n1 [I-292, N-((7-methyl-4-(4-(trifluoromethyl)phenyl)-7H-pyrrolo[2,3-d]pyrimidin-2-yl)methyl)acrylamide] |
| 1 to 5 µM | COc1cc(-c2ccc(C(F)(F)F)cc2)nc2cc(C(=O)NCCC(=O)C(F)(F)F)ccc12 [I-362, 4-Methoxy-N-(4,4,4-trifluoro-3-oxobutyl)-2-(4-(trifluoromethyl)phenyl)quinoline-7-carboxamide] |
| 1 to 5 µM | C=CC(=O)NCc1cn2ccnc2c(OCc2cccc(C(F)(F)F)c2)n1 [I-294, N-((8-((3-(trifluoromethyl)benzyl)oxy)imidazo[1,2-a]pyrazin-6-yl)methyl) acrylamide] |
| 1 to 5 µM | O=C(O)c1ccc2c(c1)nc(-c1cnc(C(F)(F)F)cn1)c1cccn12 [I-198, 4-(5-(trifluoromethyl)pyrazin-2-yl)pyrrolo[1,2-a]quinoxaline-7-carboxylic acid] |
| ≤ 1 µM | O=C(N[C@@H](CO)c1ccccc1)c1ccc2ccc(-c3ccc(C(F)(F)F)cc3)nc2c1 [I-428, (R)—N-(2-hydroxy-1-phenylethyl)-2-(4-(trifluoromethyl)phenyl)quinoline-7-carboxamide] |
| 1 to 5 µM | O=C(O)c1ccc2c(c1)nc(-c1ccc(OC(F)F)cc1)c1cccn12 [I-193, 4-(4-(difluoromethoxy)phenyl)pyrrolo[1,2-a]quinoxaline-7-carboxylic acid] |
| ≤ 1 µM | C=CC(=O)NCc1cc2nccn2c(-c2ccc(C(F)(F)F)cc2)n1 [I-315, N-((5-(4-(trifluoromethyl)phenyl)imidazo[1,2-c]pyrimidin-7-yl)methyl)acrylamide] |
| 1 to 5 µM | C=CC(=O)NCc1nc(-c2ccc(C(F)(F)F)cc2)n2cccnc12 [I-438, N-((6-(4-(trifluoromethyl)phenyl)imidazo[1,5-a]pyrimidin-8-yl)methyl)acrylamide] |
| ≤ 1 µM | C=CC(=O)NCc1nc(-c2ccc(C(F)(F)F)cc2)c2cccnc2n1 [I-304, N-((4-(4-(trifluoromethyl)phenyl)pyrido[2,3-d]pyrimidin-2-yl)methyl)acrylamide] |
